Converted amounts (≈) assume the structure as drawn.
What was measured:
Huh7 or HepG2 cell line = test: MTT assay (cytotoxicity); assay type: cell-based, human; settings: 24 hours and 48 hours
Method: The MTT assay is a colorimetric assay that measures the reduction of yellow 3-(4,5-dimethylhiazol-2-yl)-2,5-diphenyl tetrazolium bromide (MTT) by mitochondrial succinate dehydrogenase. The MTT enters the cells and passes into the mitochondria where it is reduced to an insoluble, dark purple, formazan product. The cells are then solubilized with an organic solvent (e.g., isopropanol) and the released, solubilized formazan reagent is measured spectrophotometrically. Since reduction of MTT can only occur in metabolically active cells, the level of activity is a measure of the viability of the cells.
Cells of the Huh7 or HepG2 cell line were seeded in a 96 well plate. The plate was incubated overnight at 37° C. in a humidified incubator, 5% CO2. The test compounds were added to the plate. Different concentrations of drug were tested in triplicate along with a negative control. The final volume was adjusted to 100 μl per well. The plate was incubated overnight at 37° C. in a humidified incubator, 5% CO2. After 24 hours and 48 hours, MTT reagent (5 mg/ml, 10 μl/100 μl per well of the 96 well plate) was added and incubated at 37° C. for 3 hours. After 3 hours, 100 μl of the DMSO solution was added to each well and the plate was rocked at room temperature for 1 hour. The plate was then read on a plate reader at […].

Candida albicans (CAF-2) = test: Anti-fungal/anti-yeast activity: MIC50 (broth microdilution) and MFC; assay type: cell-based; settings: for MIC: read-out: MIC-50
Method: (§1) Fluconazole, an ergosterol inhibitor, and the beta-1,3-glucan inhibitor micafungin served as controls (See Tables 1-8).
(§2) The minimum inhibitory concentrations resulting in 50% growth inhibition (MIC50) of […] Candida species (C. albicans, C. tropicalis and C. glabrata, C. lusitaniae, C. parapsilosis, and C. apicola) as well as Aspergillus fumigatus to a set of novel synthetic compounds was determined in accordance with the guidelines in CLSI document M27-A2 (Clinical and Laboratory Standards Institute; Wayne, Pa.). The total volume of cells and drug was 100 μL per microtiter well, and each drug was diluted in RPMI to achieve final concentrations of 0.2-100 μg/ml. Uninoculated cultures were used as a reference standard. Stock inoculum suspensions were prepared from 24 hour cultures on YPD (yeast extract/peptone/dextrose) media at 30° C. For MIC determinations, an inoculum of 1.0×10^3 cells of Candidia and 2.0×10^3 cells of Aspergillus per well were used, and cells in diluted drugs were prepared in RPMI-1640 medium. MICs were determined both visually and spectrophotometrically at 24 hours and 48 h at 550 nm using a micro plate reader. The MIC50 endpoint was measured as the lowest drug concentration resulting in a reduction of growth of 50% or more compared with growth of the control.
(§3) The minimum fungicidal concentrations (MFCs) were determined for each drug-isolate-medium combination as follows. After 48 hours of incubation, 100 μL of each drug-isolate-medium combination (2 plates) was subcultured onto YPD plates (100 μL of solution was spread over the YPD plate). […] The plates were then incubated at 30° C. for 48 hours.
(§4) The in vitro fungicidal activities (MFCs) were determined for each drug-isolate-medium combination as follows. After 48 hours of incubation, 10 μL each drug-isolate-medium combination was spotted onto YPD plates (10 μL of each well is spotted sequentially with positive and negative control wells). […] The plates were then incubated at 30° C. for 48 hours.

Candida lusitaniae = test: as above; assay type: cell-based; settings: for Activity (fungicidal/fungistatic) / Ratio MFC/MIC: Candida lusitaniae; for MFC / MIC: Clavispora lusitaniae; for MIC: read-out: MIC-50
Method: as §1, §2, §3, §4

Candida tropicalis = test: as above; assay type: cell-based; settings: for MIC: read-out: MIC-50
Method: as §1, §2, §3, §4

Candida glabrata = test: as above; assay type: cell-based; settings: for Activity (fungicidal/fungistatic) / Ratio MFC/MIC: Candida glabrata; for MFC / MIC: Nakaseomyces glabratus; for MIC: read-out: MIC-50
Method: as §1, §2, §3, §4

Candida apicola = test: as above; assay type: cell-based; settings: for Activity (fungicidal/fungistatic) / MIC-50 / Ratio MFC/MIC: Candida apicola; for MFC: Starmerella apicola
Method: as §1, §2, §3, §4

Candidia parapsilosis = test: as above; assay type: cell-based; settings: for Activity (fungicidal/fungistatic) / Ratio MFC/MIC: Candidia parapsilosis; for MIC: read-out: MIC-50
Method: as §1, §2, §3, §4

[1] = system: Saccharomyces cerevisiae (YPH501); test: as above; assay type: cell-based; settings: for MFC / MIC: Saccharomyces cerevisiae; for Activity (fungicidal/fungistatic) / Ratio MFC/MIC: Saccharomyces cerevisiae (YPH501); for MIC: read-out: MIC-50
Huh7 cells = test: Neutral red uptake assay (cytotoxicity); assay type: cell-based, human
Description: The neutral red uptake assay is a cytotoxicity test that is based on the ability of viable cells to incorporate and bind the supra-vital dye neutral red in the lysosomes. This weakly cationic dye penetrates cell membranes by non-ionic passive diffusion and concentrates in the lysosomes, where it binds by electrostatic hydrophobic bonds to anionic and phosphate groups of the lysosomal matrix. The dye is then extracted from the viable cells using an acidified ethanol solution, and the absorbance of the solubilized dye is read. When the cell dies or the pH gradient is reduced, the dye is not retained and consequently, the amount of retained dye is proportional to the number of viable cells. Most primary cells and cell lines can be used for this method. The HepG2 and Huh7, two human hepatoma cell lines, were used for this study. The cells were seeded in 96-well tissue culture plates and treated for 48 hours with the compounds. The plates were then incubated for 2 hours with a medium containing neutral red. The cells were subsequently washed, the dye was extracted in each well, and the absorbance was read using a spectrophotometer (FIG. 3 and Table 11).

C. albicans Mutants = test: MIC50 in C. albicans mutant strains; assay type: cell-based; settings: Candida albicans
Method: as §2
The MIC50 of Compounds I-1, I-2, and I-5 in several mutant strains of Candida albicans, including fluconazole resistant clinical strains, was determined according to the methods described in Example 1 (see Table 9). The activity of Compound I-1 against fluconazole resistant strains was further explored (see Table 10). In Table 10, Strain #1 is a fluconazole sensitive Candida albicans strain; Strain #17 is a fluconazole resistant Candida albicans strain; C. albicans CS#01 is a first clinical strain; C. albicans CS#02 is a second clinical strain.

Aspergillus fumigatus = test: Anti-fungal/anti-yeast activity: MIC50 (broth microdilution) and MFC; assay type: cell-based
Method: as §1, §2, §3, §4

In the case of O=C(Cn1sc2ccccc2c1=O)NNC(=O)c1cccc(Cl)c1 [Compound I-5], the “Toxicity to mammalian cell lines (MTT assay)” value (Huh7 or HepG2 cell line) is reported as “minimally toxic”, the “Activity (fungicidal/fungistatic)” value (Candida albicans (CAF-2)) is reported as “fungicidal (An MFC/MIC ratio of less than four indicates that the compound is fungicidal)” and the MFC (Candida albicans (CAF-2)) is reported as 12.5 µg/mL. The “Ratio MFC/MIC” value (Candida albicans (CAF-2)) was 2, the MIC (Candida albicans (CAF-2)) was 6.4 µg/mL and the “Activity (fungicidal/fungistatic)” value (Candida lusitaniae) was “fungicidal (An MFC/MIC ratio of less than four indicates that the compound is fungicidal)”. For the same compound, the “Ratio MFC/MIC” value (Candida lusitaniae) was 2, the MFC (Candida lusitaniae) was 6.4 µg/mL and the MIC (Candida lusitaniae) was 3.2 µg/mL. For the same compound, the “Activity (fungicidal/fungistatic)” value (Candida tropicalis) was “fungicidal (An MFC/MIC ratio of less than four indicates that the compound is fungicidal)”, the MFC (Candida tropicalis) was 12.5 µg/mL and the “Ratio MFC/MIC” value (Candida tropicalis) was 2. The MIC (Candida tropicalis) was 6.4 µg/mL, the “Activity (fungicidal/fungistatic)” value (Candida glabrata) was “fungicidal (An MFC/MIC ratio of less than four indicates that the compound is fungicidal)” and the “Ratio MFC/MIC” value (Candida glabrata) was 1. The MFC (Candida glabrata) was 6.4 µg/mL, the MIC (Candida glabrata) was 6.4 µg/mL and the “Activity (fungicidal/fungistatic)” value (Candida apicola) was “fungicidal (An MFC/MIC ratio of less than four indicates that the compound is fungicidal)”. The MIC-50 (Candida apicola) was 6.4 µg/mL, the “Ratio MFC/MIC” value (Candida apicola) was 2 and the MFC (Candida apicola) was 12.5 µg/mL. The MFC (Candidia parapsilosis) was 12.5 µg/mL, the “Activity (fungicidal/fungistatic)” value (Candidia parapsilosis) was “fungicidal (An MFC/MIC ratio of less than four indicates that the compound is fungicidal)” and the “Ratio MFC/MIC” value (Candidia parapsilosis) was 2. The MIC (Candidia parapsilosis) was 6.4 µg/mL, the MFC [1] was 3 µg/mL (≈ 8.29 µM) and the “Activity (fungicidal/fungistatic)” value [1] was “fungicidal (An MFC/MIC ratio of less than four indicates that the compound is fungicidal)”. The “Ratio MFC/MIC” value [1] was 1, the MIC [1] was 3 µg/mL (≈ 8.29 µM) and the “Percentage Viability” value (Huh7 cells; 3.3 μg/mL (approx 1X MIC)) was greater than 100%. The “Percentage Viability” value (Huh7 cells; 10 μg/mL (approx 3X MIC)) was greater than 100%, the “Percentage Viability” value (Huh7 cells; 33 μg/mL (approx 10X MIC)) was greater than 100% and the “Percentage Viability” value (Huh7 cells; 100 μg/mL (approx 30X MIC)) was 92%. The MIC50 (C. albicans Mutants; C. albicans strain CAF-2) was 6 µg/mL (≈ 16.6 µM), the MIC50 (C. albicans Mutants; C. albicans strain CHK11) was 6 µg/mL (≈ 16.6 µM) and the MIC50 (C. albicans Mutants; C. albicans strain CHK21) was 6 µg/mL (≈ 16.6 µM). For the same compound, the MIC50 (C. albicans Mutants; C. albicans strain CHK23) was 6 µg/mL (≈ 16.6 µM), the MIC50 (C. albicans Mutants; C. albicans strain GOA31) was 6 µg/mL (≈ 16.6 µM) and the MIC50 (C. albicans Mutants; C. albicans strain GOA32) was 6 µg/mL (≈ 16.6 µM).

With O=C(Cn1sc2ccccc2c1=O)Nc1ccccc1Oc1ccccc1 [Compound I-2] the “Toxicity to mammalian cell lines (MTT assay)” value (Huh7 or HepG2 cell line) was “minimally toxic”, the “Activity (fungicidal/fungistatic)” value (Candida albicans (CAF-2)) was “fungicidal (An MFC/MIC ratio of less than four indicates that the compound is fungicidal)” and the MFC (Candida albicans (CAF-2)) was 3.2 µg/mL. For the same compound, the “Ratio MFC/MIC” value (Candida albicans (CAF-2)) was 1, the MIC (Candida albicans (CAF-2)) was 3.2 µg/mL and the “Activity (fungicidal/fungistatic)” value (Candida lusitaniae) was “fungicidal (An MFC/MIC ratio of less than four indicates that the compound is fungicidal)”. For the same compound, the “Ratio MFC/MIC” value (Candida lusitaniae) was 2, the MFC (Candida lusitaniae) was 3.2 µg/mL and the MIC (Candida lusitaniae) was 1.6 µg/mL. The “Activity (fungicidal/fungistatic)” value (Candida tropicalis) was “fungicidal (An MFC/MIC ratio of less than four indicates that the compound is fungicidal)”, the MFC (Candida tropicalis) was 3.2 µg/mL and the “Ratio MFC/MIC” value (Candida tropicalis) was 1. The MIC (Candida tropicalis) was 3.2 µg/mL, the “Activity (fungicidal/fungistatic)” value (Candida glabrata) was “fungicidal (An MFC/MIC ratio of less than four indicates that the compound is fungicidal)” and the “Ratio MFC/MIC” value (Candida glabrata) was 2. The MFC (Candida glabrata) was 3.2 µg/mL, the MIC (Candida glabrata) was 1.6 µg/mL and the “Activity (fungicidal/fungistatic)” value (Candida apicola) was “fungicidal (An MFC/MIC ratio of less than four indicates that the compound is fungicidal)”. The MIC-50 (Candida apicola) was 6.4 µg/mL, the “Ratio MFC/MIC” value (Candida apicola) was 1 and the MFC (Candida apicola) was 6.4 µg/mL. The MFC (Candidia parapsilosis) was 3.2 µg/mL, the “Activity (fungicidal/fungistatic)” value (Candidia parapsilosis) was “fungicidal (An MFC/MIC ratio of less than four indicates that the compound is fungicidal)” and the “Ratio MFC/MIC” value (Candidia parapsilosis) was 2. The MIC (Candidia parapsilosis) was 1.6 µg/mL, the “Activity (fungicidal/fungistatic)” value (Aspergillus fumigatus) was “fungistatic (an MFC/MIC ratio of greater than four indicates that the compound is fungistatic)” and the MFC (Aspergillus fumigatus) was 50 µg/mL. For the same compound, the MIC50 (Aspergillus fumigatus) was 12.5 µg/mL, the “Ratio MFC/MIC” value (Aspergillus fumigatus) was 4 and the MFC [1] was 3.2 µg/mL (≈ 8.5 µM). For the same compound, the “Activity (fungicidal/fungistatic)” value [1] was “fungicidal (An MFC/MIC ratio of less than four indicates that the compound is fungicidal)”, the “Ratio MFC/MIC” value [1] was 2 and the MIC [1] was 1.6 µg/mL (≈ 4.25 µM). The “Percentage Viability” value (Huh7 cells; 3.3 μg/mL (approx 1X MIC)) was greater than 100%, the “Percentage Viability” value (Huh7 cells; 10 μg/mL (approx 3X MIC)) was greater than 100% and the “Percentage Viability” value (Huh7 cells; 33 μg/mL (approx 10X MIC)) was greater than 100%. The “Percentage Viability” value (Huh7 cells; 100 μg/mL (approx 30X MIC)) was 75%, the MIC50 (C. albicans Mutants; C. albicans strain CAF-2) was 3 µg/mL (≈ 7.97 µM) and the MIC50 (C. albicans Mutants; C. albicans strain CHK11) was 12.5 µg/mL (≈ 33.2 µM). The MIC50 (C. albicans Mutants; C. albicans strain CHK21) was greater than 100 µg/mL, the MIC50 (C. albicans Mutants; C. albicans strain CHK23) was 25 µg/mL (≈ 66.4 µM) and the MIC50 (C. albicans Mutants; C. albicans strain GOA31) was 3 µg/mL (≈ 7.97 µM). The MIC50 (C. albicans Mutants; C. albicans strain GOA32) was 3 µg/mL (≈ 7.97 µM).
